Literature values in patent US7060695B2, “Method to prevent vision loss” (QLT, Inc., priority 2001, dated 2006).

Test system: CNV
Details: approved protocol, re-treatment as frequently as every three months if CNV leakage

For verteporfin, the closure of neovasculature is given as “closes neovasculature” and the “loss of visual acuity compared to placebo controls” value is given as “prevents loss of visual acuity compared to placebo controls”.
